In brackets after ≈: the same amount, converted by molar mass.
How the values were obtained:
physchem = settings: water
[1] = Water solubility of salts with hydrophilic amines; settings: as salts with hydrophilic amines

| Compound | solubility (physchem) [µg/mL] | water solubility compared with the respective chlorin e6 salts [1] |
| --- | --- | --- |
| C=Cc1c(C)c2cc3nc(c(CC(=O)O)c4[nH]c(cc5nc(cc1[nH]2)C(C)=C5CC)c(C)c4C(=O)O)[C@@H](CCC(=O)O)[C@@H]3C [(7), chlorin e6] | > 5000 | – |
| C=Cc1c(C)c2cc3nc(c4c5[nH]c(cc6nc(cc1[nH]2)C(C)=C6CC)c(C)c5C(=O)OC4=O)[C@@H](CCC(=O)O)[C@@H]3C [(8), purpurin 18] | – | remarkably lower water solubility |
| C=Cc1c(C)c2cc3nc(c(C(=O)O)c4[nH]c(cc5nc(cc1[nH]2)C(C)=C5CC)c(C)c4C(=O)O)[C@@H](CCC(=O)O)[C@@H]3C [(9), chlorin p6] | – | remarkably lower water solubility |
| CCC1=C(C)c2cc3[nH]c(cc4nc(c5c6[nH]c(cc1n2)c(C)c6C(=O)C5)[C@@H](CCC(=O)O)[C@@H]4C)c(C)c3CC [(36), mesopyropheophorbide a] | 40 (≈ 74.5 µM) | – |
| pheophorbide a [(4)] | – | remarkably lower water solubility |
